Results as given in patent US8952024B2, “Herbicidal pyrimidone derivatives” (E I du Pont de Nemours and Company, priority 2009, dated 2015).

Legend:
Type in all cases: in vivo
[1] = test system: cocklebur (Xanthium strumarium); assay: Test B pre-/postemergence plant response
In short: (§1)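 Seeds sown in loam–sand blend were treated preemergence, and plants at 2–18 cm (1- to 4-leaf stage) in peat-based medium were treated postemergence; compounds were formulated in non-phytotoxic solvent with surfactant. After 13–15 days in greenhouse, response was visually rated against controls, 0 (no effect) to 100 (complete control).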

[2] = test system: goosegrass (Eleusine indica); assay: Test B pre-/postemergence plant response
In short: as §1

[3] = test system: johnsongrass (Sorghum halepense); assay: Test B pre-/postemergence plant response
In short: as §1

kochia (Kochia scoparia) = assay: Test B pre-/postemergence plant response
In short: as §1

[4] = test system: pigweed (Amaranthus retroflexus); assay: Test B pre-/postemergence plant response
In short: as §1

[5] = test system: ragweed (common ragweed, Ambrosia elatior); assay: Test B pre-/postemergence plant response
In short: as §1

soybean (Glycine max) = assay: Test B pre-/postemergence plant response
In short: as §1

[6] = test system: velvetleaf (Abutilon theophrasti); assay: Test B pre-/postemergence plant response
In short: as §1

[7] = test system: wheat (Triticum aestivum); assay: Test B pre-/postemergence plant response
In short: as §1

wild oat (Avena fatua) = assay: Test B pre-/postemergence plant response
In short: as §1

[8] = test system: canarygrass (Phalaris minor); assay: Test B postemergence plant response
In short: (§2)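 Plants at the 1- to 4-leaf stage (2 to 18 cm tall), grown in pots of peat moss/vermiculite medium with wetting agent and starter nutrients, received postemergence applications of test chemicals. After 13 to 15 days in a greenhouse, injury was rated visually against untreated controls on a 0 (no effect) to 100 (complete control) scale.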

[9] = test system: chickweed (Stellaria media); assay: Test B postemergence plant response
In short: as §2

[10] = test system: windgrass (Apera spica-venti); assay: Test B postemergence plant response
In short: as §2

[11] = 31 g ai/ha, postemergence, scale 0 to 100, 0 is no effect, 100 is complete control
[12] = 250 g ai/ha, Preemergence, 0 to 100 scale
[13] = Postemergence, 62 g ai/ha, scale 0 (no effect) to 100 (complete control), 13 to 15 days
[14] = Postemergence, 125 g ai/ha, visual rating after 13 to 15 days, scale 0 (no effect) to 100 (complete control)
[15] = Postemergence, 250 g ai/ha, scale 0 to 100 (0 no effect, 100 complete control)
[16] = Preemergence, 31 g ai/ha, scale 0 to 100 (0 no effect, 100 complete control)
[17] = Preemergence, 62 g ai/ha, scale 0 to 100 (0 no effect, 100 complete control)
[18] = Preemergence, 125 g ai/ha, scale 0 to 100, 0 no effect, 100 complete control

In the case of `O=C1CCCC(O)=C1C(=O)c1cnc(-c2ccccc2)n(CC2CCCO2)c1=O` (stereo not drawn) [Compound 59], the “Plant response rating, Cocklebur” value [1, 11] is reported as 85, the “Plant response rating, Cocklebur” value [1, 12] is reported as 75 and the “Plant response rating, Cocklebur” value [1, 13] is reported as 85. The “Plant response rating, Cocklebur” value [1, 14] was 90, the “Plant response rating, Cocklebur” value [1, 15] was 100 and the “Plant response rating, Cocklebur” value [1, 16] was 0. The “Plant response rating, Cocklebur” value [1, 17] was 0, the “Plant response rating, Cocklebur” value [1, 18] was 10 and the “Plant response rating, Goosegrass” value [2, 11] was 75. For the same molecule, the “Plant response rating, Goosegrass” value [2, 12] was 100, the “Plant response rating, Goosegrass” value [2, 13] was 80 and the “Plant response rating, Goosegrass” value [2, 14] was 95. The “Plant response rating, Goosegrass” value [2, 15] was 95, the “Plant response rating, Goosegrass” value [2, 16] was 98 and the “Plant response rating, Goosegrass” value [2, 17] was 98. The “Plant response rating, Goosegrass” value [2, 18] was 100, the “Plant response rating, Johnsongrass” value [3, 12] was 90 and the “Plant response rating, Johnsongrass” value [3, 13] was 75. The “Plant response rating, Johnsongrass” value [3, 14] was 100, the “Plant response rating, Johnsongrass” value [3, 15] was 100 and the “Plant response rating, Johnsongrass” value [3, 18] was 80. The “Plant response rating, Kochia” value (kochia (Kochia scoparia); [12]) was 98, the “Plant response rating, Kochia” value (kochia (Kochia scoparia); [13]) was 10 and the “Plant response rating, Kochia” value (kochia (Kochia scoparia); [14]) was 45. For the same molecule, the “Plant response rating, Kochia” value (kochia (Kochia scoparia); [15]) was 75, the “Plant response rating, Kochia” value (kochia (Kochia scoparia); [16]) was 0 and the “Plant response rating, Kochia” value (kochia (Kochia scoparia); [17]) was 45. For the same molecule, the “Plant response rating, Kochia” value (kochia (Kochia scoparia); [18]) was 60, the “Plant response rating, Pigweed” value [4, 13] was 100 and the “Plant response rating, Pigweed” value [4, 14] was 100. The “Plant response rating, Pigweed” value [4, 15] was 100, the “Plant response rating, Pigweed” value [4, 16] was 90 and the “Plant response rating, Pigweed” value [4, 17] was 100. The “Plant response rating, Pigweed” value [4, 18] was 100, the “Plant response rating, Ragweed” value [5, 11] was 75 and the “Plant response rating, Ragweed” value [5, 13] was 80. For the same molecule, the “Plant response rating, Ragweed” value [5, 14] was 90, the “Plant response rating, Ragweed” value [5, 15] was 95 and the “Plant response rating, Ragweed” value [5, 16] was 75. The “Plant response rating, Ragweed” value [5, 17] was 90, the “Plant response rating, Ragweed” value [5, 18] was 90 and the “Plant response rating, Soybean” value (soybean (Glycine max); [11]) was 90. For the same molecule, the “Plant response rating, Soybean” value (soybean (Glycine max); [13]) was 95, the “Plant response rating, Soybean” value (soybean (Glycine max); [14]) was 95 and the “Plant response rating, Soybean” value (soybean (Glycine max); [15]) was 95. For the same molecule, the “Plant response rating, Soybean” value (soybean (Glycine max); [17]) was 0, the “Plant response rating, Soybean” value (soybean (Glycine max); [18]) was 0 and the “Plant response rating, Velvetleaf” value [6, 11] was 85. The “Plant response rating, Velvetleaf” value [6, 13] was 90, the “Plant response rating, Velvetleaf” value [6, 14] was 95 and the “Plant response rating, Velvetleaf” value [6, 15] was 98. For the same molecule, the “Plant response rating, Velvetleaf” value [6, 16] was 75, the “Plant response rating, Velvetleaf” value [6, 17] was 90 and the “Plant response rating, Velvetleaf” value [6, 18] was 100. The “Plant response rating, Wheat” value [7, 11] was 0, the “Plant response rating, Wheat” value [7, 13] was 5 and the “Plant response rating, Wheat” value [7, 14] was 10. For the same molecule, the “Plant response rating, Wheat” value [7, 15] was 60, the “Plant response rating, Wheat” value [7, 16] was 0 and the “Plant response rating, Wheat” value [7, 17] was 0. The “Plant response rating, Wheat” value [7, 18] was 0, the “Plant response rating, Oat, Wild” value (wild oat (Avena fatua); [11]) was 30 and the “Plant response rating, Oat, Wild” value (wild oat (Avena fatua); [13]) was 40. The “Plant response rating, Oat, Wild” value (wild oat (Avena fatua); [14]) was 55, the “Plant response rating, Oat, Wild” value (wild oat (Avena fatua); [15]) was 80 and the “Plant response rating, Oat, Wild” value (wild oat (Avena fatua); [16]) was 0. For the same molecule, the “Plant response rating, Oat, Wild” value (wild oat (Avena fatua); [17]) was 0, the “Plant response rating, Oat, Wild” value (wild oat (Avena fatua); [18]) was 0 and the “Plant response rating, Canarygrass” value [8, 11] was 5. The “Plant response rating, Canarygrass” value [8, 13] was 5, the “Plant response rating, Canarygrass” value [8, 14] was 50 and the “Plant response rating, Canarygrass” value [8, 15] was 70. The “Plant response rating, Chickweed” value [9, 11] was 85, the “Plant response rating, Chickweed” value [9, 13] was 98 and the “Plant response rating, Chickweed” value [9, 14] was 98. For the same molecule, the “Plant response rating, Chickweed” value [9, 15] was 100, the “Plant response rating, Windgrass” value [10, 11] was 20 and the “Plant response rating, Windgrass” value [10, 13] was 60. The “Plant response rating, Windgrass” value [10, 14] was 60 and the “Plant response rating, Windgrass” value [10, 15] was 70.
`CCCCc1ncc(C(=O)C2=C(O)CCCC2=O)c(=O)n1-c1cccc(C)c1` [Compound 63] was tested, and the “Plant response rating, Cocklebur” value [1, 11] was 65, the “Plant response rating, Cocklebur” value [1, 12] was 10 and the “Plant response rating, Cocklebur” value [1, 13] was 80. The “Plant response rating, Cocklebur” value [1, 14] was 90, the “Plant response rating, Cocklebur” value [1, 15] was 95 and the “Plant response rating, Cocklebur” value [1, 16] was 0. The “Plant response rating, Cocklebur” value [1, 17] was 0, the “Plant response rating, Cocklebur” value [1, 18] was 0 and the “Plant response rating, Goosegrass” value [2, 11] was 70. The “Plant response rating, Goosegrass” value [2, 12] was 100, the “Plant response rating, Goosegrass” value [2, 13] was 70 and the “Plant response rating, Goosegrass” value [2, 14] was 70. The “Plant response rating, Goosegrass” value [2, 15] was 75, the “Plant response rating, Goosegrass” value [2, 16] was 90 and the “Plant response rating, Goosegrass” value [2, 17] was 98. For the same molecule, the “Plant response rating, Goosegrass” value [2, 18] was 100, the “Plant response rating, Johnsongrass” value [3, 12] was 60 and the “Plant response rating, Johnsongrass” value [3, 13] was 10. The “Plant response rating, Johnsongrass” value [3, 14] was 10, the “Plant response rating, Johnsongrass” value [3, 15] was 15 and the “Plant response rating, Johnsongrass” value [3, 16] was 0. For the same molecule, the “Plant response rating, Johnsongrass” value [3, 17] was 0, the “Plant response rating, Johnsongrass” value [3, 18] was 55 and the “Plant response rating, Kochia” value (kochia (Kochia scoparia); [11]) was 10. The “Plant response rating, Kochia” value (kochia (Kochia scoparia); [12]) was 100, the “Plant response rating, Kochia” value (kochia (Kochia scoparia); [13]) was 25 and the “Plant response rating, Kochia” value (kochia (Kochia scoparia); [14]) was 25. For the same molecule, the “Plant response rating, Kochia” value (kochia (Kochia scoparia); [15]) was 65, the “Plant response rating, Kochia” value (kochia (Kochia scoparia); [16]) was 0 and the “Plant response rating, Kochia” value (kochia (Kochia scoparia); [17]) was 100. For the same molecule, the “Plant response rating, Kochia” value (kochia (Kochia scoparia); [18]) was 100, the “Plant response rating, Pigweed” value [4, 11] was 85 and the “Plant response rating, Pigweed” value [4, 13] was 95. The “Plant response rating, Pigweed” value [4, 14] was 95, the “Plant response rating, Pigweed” value [4, 15] was 100 and the “Plant response rating, Pigweed” value [4, 16] was 95. The “Plant response rating, Pigweed” value [4, 17] was 98, the “Plant response rating, Pigweed” value [4, 18] was 100 and the “Plant response rating, Ragweed” value [5, 11] was 70. The “Plant response rating, Ragweed” value [5, 13] was 75, the “Plant response rating, Ragweed” value [5, 14] was 80 and the “Plant response rating, Ragweed” value [5, 15] was 80. The “Plant response rating, Ragweed” value [5, 16] was 65, the “Plant response rating, Ragweed” value [5, 17] was 65 and the “Plant response rating, Ragweed” value [5, 18] was 70. For the same molecule, the “Plant response rating, Soybean” value (soybean (Glycine max); [11]) was 75, the “Plant response rating, Soybean” value (soybean (Glycine max); [13]) was 75 and the “Plant response rating, Soybean” value (soybean (Glycine max); [14]) was 85. For the same molecule, the “Plant response rating, Soybean” value (soybean (Glycine max); [15]) was 85, the “Plant response rating, Soybean” value (soybean (Glycine max); [16]) was 0 and the “Plant response rating, Soybean” value (soybean (Glycine max); [17]) was 0. For the same molecule, the “Plant response rating, Soybean” value (soybean (Glycine max); [18]) was 5, the “Plant response rating, Velvetleaf” value [6, 11] was 95 and the “Plant response rating, Velvetleaf” value [6, 13] was 98. For the same molecule, the “Plant response rating, Velvetleaf” value [6, 14] was 98, the “Plant response rating, Velvetleaf” value [6, 15] was 98 and the “Plant response rating, Velvetleaf” value [6, 16] was 75. For the same molecule, the “Plant response rating, Velvetleaf” value [6, 17] was 90, the “Plant response rating, Velvetleaf” value [6, 18] was 100 and the “Plant response rating, Wheat” value [7, 11] was 0. For the same molecule, the “Plant response rating, Wheat” value [7, 13] was 0, the “Plant response rating, Wheat” value [7, 14] was 0 and the “Plant response rating, Wheat” value [7, 15] was 10. For the same molecule, the “Plant response rating, Wheat” value [7, 16] was 0, the “Plant response rating, Wheat” value [7, 17] was 0 and the “Plant response rating, Wheat” value [7, 18] was 0. The “Plant response rating, Oat, Wild” value (wild oat (Avena fatua); [11]) was 0, the “Plant response rating, Oat, Wild” value (wild oat (Avena fatua); [13]) was 0 and the “Plant response rating, Oat, Wild” value (wild oat (Avena fatua); [14]) was 5. The “Plant response rating, Oat, Wild” value (wild oat (Avena fatua); [15]) was 20, the “Plant response rating, Oat, Wild” value (wild oat (Avena fatua); [16]) was 0 and the “Plant response rating, Oat, Wild” value (wild oat (Avena fatua); [17]) was 0. The “Plant response rating, Oat, Wild” value (wild oat (Avena fatua); [18]) was 0, the “Plant response rating, Canarygrass” value [8, 11] was 0 and the “Plant response rating, Canarygrass” value [8, 13] was 0. For the same molecule, the “Plant response rating, Canarygrass” value [8, 14] was 0, the “Plant response rating, Canarygrass” value [8, 15] was 0 and the “Plant response rating, Chickweed” value [9, 11] was 60. For the same molecule, the “Plant response rating, Chickweed” value [9, 13] was 65, the “Plant response rating, Chickweed” value [9, 14] was 80 and the “Plant response rating, Chickweed” value [9, 15] was 95. The “Plant response rating, Windgrass” value [10, 11] was 10, the “Plant response rating, Windgrass” value [10, 13] was 30 and the “Plant response rating, Windgrass” value [10, 14] was 40. The “Plant response rating, Windgrass” value [10, 15] was 60.
